Assay results from article PMC3049593 (British Journal of Cancer, 2011).

Legend:
Type in all cases: in vivo, mice
[1] = tested on: Lewis Lung Carcinoma (LL/2) tumour angiogenesis; test: CD31 staining of primary LL/2 tumours
Protocol: Angiogenesis in vivo was evaluated using the Angiosponge model in which subcutaneously implanted, agarose-captured FGF2 gelfoam sterile sponges (Pfizer, West Ryde, Australia) induces vascularisation over a 10-day period responsive to angiogenesis inhibition as determined by the number of vessels with identifiable lumen that stained positive for CD31/PECAM-1, an antigen present specifically on endothelial cells ([McCarty et al, 2002]). PG545 was administered s.c. on the flank distal to the AngioSponge implant. This method was also used to examine five medium-sized primary tumours from each group of Lewis Lung Carcinoma (LL/2)-bearing mice.
(§1) In the orthotopic Hep3b2.1-7 human liver cancer model, treatment of mice (n=10) began 14 days after inoculation of 2.5 × 10^6 cells. […] To initiate tumour xenografts, MDA-MB-231, PC3, Cal27 and HepG2 cells were injected s.c. into nude mice (n=8) at 4, 5, 2 and 2 × 10^7 cells ml^−1, respectively. […] In the B16F0 lung metastasis model, 2 × 10^5 cells were injected via the tail vein of C57Bl6 mice (n=8). […] Surface lung macrometastases were counted for each group (n=9) upon study termination. […] Solid tumours were measured in two dimensions (length and width) and the tumour volume (cm^3) was calculated using the equation: V=length × width^2 × π/6. The anti-tumour activity was expressed as percent tumour growth inhibition (%TGI). […]

Hep3b2.1-7 tumours = test: orthotopic Hep3b2.1-7 human liver cancer model
Protocol: as §1, with “termination. In the intrasplenic HT-29 xenograft model, 1 × 10^6 cells in 100 μl were injected into the spleen.” for “termination.”, “(%TGI). Further details are available in Supplementary Methods.” for “(%TGI).”
In the Hep3b2.1-7 model, the cells resuspended in HBSS:MatrigelTM (1:1, v/v) to a final concentration of 5 x 10^8 cells/mL were inoculated following an incision into the skin directly over the liver to expose the main lobe of the liver. The needle was introduced into the main lobe of the liver, where 2.5 x 106 Hep3b2.1-7 cells (in 5 µL with 50% Matrigel) were discharged. The treatment of mice began 24 days after inoculation of the […]
either a once or twice weekly dosing schedule (see figure legends for dose schedules in each study) for up to three weeks. […]
efficacy/PK study) using either a once or twice weekly dosing schedule (see figure legends for dose schedules in each study) for up to three weeks. […]
(§2) In relevant models, solid tumours were measured in two dimensions (length and width) and the tumour volume (mm3) calculated using the equation V = length × width2 × π/6.The anti-tumour activity was assessed by the comparison of the mean tumour volume of the treated groups to the mean tumour volume of the control group and expressed as the percent Tumour Growth Inhibition (TGI) using the equation:
%TGI = (1-((VendPG545 - VstartPG545) / (VendControl - VstartControl)))*100 VendPG545 = Ending Tumour Volume of PG545-treated animal
VstartPG545 = Starting Tumour Volume of PG545-treated animal
VendControl = Ending Tumour Volume of Control animal
VstartControl = Starting Tumour Volume of Control animal […]
After collection, 0.2 mL of […]
whole blood was added to a glass scintillation vial to which 1 mL Solvable was added.
Samples were incubated for one hour at 55-60°C. 0.1 mL of 0.1 M EDTA-di-sodium salt solution and 0.3 mL to 0.5 mL of 30% hydrogen peroxide in 0.1 mL aliquots were added to the sample. Samples were gently agitated between additions to allow reaction foaming to subside. Samples were incubated for 30 minutes at room temperature. […]

[2] = tested on: HT-29 tumours and metastases; test: intrasplenic HT-29 colon xenograft spontaneous metastasis model
Protocol: as §1, with “termination. In the intrasplenic HT-29 xenograft model, 1 × 10^6 cells in 100 μl were injected into the spleen.” for “termination.”, “(%TGI). Further details are available in Supplementary Methods.” for “(%TGI).”
once weekly or Sorafenib (60mg/kg, once daily, p.o.). The treatments were continued for three weeks. The lungs were excised from all mice at the time of culling for metastasis count determination. Surface lung macrometastases were counted for each group upon […]
In the HT-29 model, the lumbar region skin was sterilized with 5% tincture and 75% ethanol, respectively. One-cm-long incision was made to expose the spleen before 1×10^6 cells in 100 µL was injected into the spleen. […]
mg/kg) was administered to mice (n=12) each week (qw) over 8 weeks and surface liver and colon metastatic nodules were counted for each group (n=12) upon study termination. Spleen and liver weights were also measured as indirect assessment of […]
as §2, with “equation: […]” for “equation:”

[3] = qw, 20 mg kg^−1, after 8th week of administration

CC(C)CCC[C@@H](C)[C@H]1CCC2C3CCC4C[C@@H](O[C@@H]5O[C@H](COS(=O)(=O)[O-])[C@@H](O[C@H]6O[C@H](COS(=O)(=O)[O-])[C@@H](O[C@H]7O[C@H](COS(=O)(=O)[O-])[C@@H](O[C@H]8O[C@H](COS(=O)(=O)[O-])[C@@H](OS(=O)(=O)[O-])[C@H](OS(=O)(=O)[O-])[C@H]8OS(=O)(=O)[O-])[C@H](OS(=O)(=O)[O-])[C@H]7OS(=O)(=O)[O-])[C@H](OS(=O)(=O)[O-])[C@H]6OS(=O)(=O)[O-])[C@H](OS(=O)(=O)[O-])[C@H]5OS(=O)(=O)[O-])CC[C@]4(C)C3CC[C@@]21C.[Na+].[Na+].[Na+].[Na+].[Na+].[Na+].[Na+].[Na+].[Na+].[Na+].[Na+].[Na+].[Na+] (some centres unmarked) [PG545]
decrease in CD31 endothelial staining in tumours ([1]; 20 mg kg^−1 once-weekly s.c.): 30%
decrease in CD31 endothelial staining in tumours ([1]; 40 mg kg^−1 once-weekly s.c.): 22%
TGI (Hep3b2.1-7 tumours; 20 mg kg^−1 loading dose then 10 mg kg^−1 twice-weekly): 55%
TGI (Hep3b2.1-7 tumours; 20 mg kg^−1 twice-weekly s.c.): 52%
TGI (Hep3b2.1-7 tumours; once-weekly 20 mg kg^−1 followed by 10 mg kg^−1): 65%
primary tumour growth ([2]; 20 mg kg^−1 qw over 8 weeks): significantly reduced primary tumour growth
TGI (colon metastases) [2, 3]: 93%
TGI (liver metastases) [2, 3]: 100%
